Data taken from patent US20090041719A1, “Method for screening therapeutic agent for glomerular disorder” (priority 2006, published 2009).
Values joined by “and” are separate entries in the source; they are usually repeats but may differ in a detail not shown here. Equal entries are not always repeated.

Legend:
[1] = system: rat unilateral ureteral obstruction release model; assay: Rat unilateral ureteral obstruction release model: glomerular and tubulointerstitial lesions, Asc-1+ cells; assay type: in vivo, SD rat;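 on Tubulointerstitial lesion: atrophy of tubules associated with dilatation of tubules (score): ± very light + light ++ moderate +++ high change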;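 on Tubulointerstitial lesion: fibrosis of interstitial tissue (score): ± very light + light ++ moderate +++ high change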;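 on Tubulointerstitial lesion: thickness of basement membrane (score): ± very light + light ++ moderate +++ high change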
Description: An experimental model was produced in accordance with the method devised and established by Ishibashi (Michio Ishibasi et al., Japanese Journal of Nephrology 42: 248, 2000), using a 8 to 9-week-old male SD rat weighing about 280 g. […] On day 14 after obstruction, the obstruction was released, and the urinary tract was reconstructed using a cuff. That is, 14 days later, the ligated ureteral obstruction part was partially removed, and a 25 gauge polyethylene tube (made by Nippon Sherwood) as a cuff was inserted from the lower normal ureteral stump and placed in the lumen. Next, the cuff was placed also in the expanded upper ureter, and both parts were ligated for fixation with a 7-0 nylon suture to reconstruct the urinary tract. At the same time, the right kidney was removed. The weight was measured after obstruction release, and the blood was collected on days 2, 5, and 7 after release for serum creatinine determination. On day 7, the rat was sacrificed under anesthesia and the left obstruction release kidney was removed. The weight of the removed kidney was measured, and the kidney pathomorphological examination was performed.
The biological effects of the test compound were studied in vivo using the model obtained in the above procedure 1). The test compound in the form of bulk powder was dissolved in sterilized physiologic saline together with gum arabic, where the concentration of the gum arabic was adjusted to 5% and the concentration of the test compound was adjusted to 30 mg/ml. The amount of 30 mg/kg was subcutaneously administered every day. Daily administration was continued for 21 days during 14 days of obstruction and 7 days after obstruction release. For controlled comparison, the solvent of 5% gum arabic was administered alone.
On day 22 from the administration of the test compound, the rat was sacrificed under anesthesia, and the left obstruction release kidney was removed and neutral formalin fixed. The fixed renal tissue embedded in paraffin was sliced into 4-micrometer-thick pieces for examination.
The tissue section was observed under a microscope in order to count the number of glomeruli and the number of glomeruli having a lesion (expansion of a tubular pole associated with swollen Bowman's capsule epithelial cells or hypertrophy of a Bowman's capsule basal membrane) in the field of view, and the number of glomeruli having the lesion (referred to as “lesioned glomerulus”) per 50 glomeruli was calculated.
As for the effectiveness to improve of glomerular lesions, when the number of lesioned glomeruli per 50 glomeruli was reduced to less than or equal to half the average number of those of the control group, it was determined as improved.
An affinity-purified anti-rat Asc-1 polyclonal antibody (rabbit) was prepared as follows: that is, in order to prepare an anti-Asc-1 peptide polyclonal antibody (rabbit), an oligopeptide (PSPLPITDKPLKTQC (SEQ. ID NO: 4)) corresponding to amino acid residues of 517-530 of Asc-1 was synthesized (see J Biol Chem (2000); 275: 9690-9698), keyhole limpet hemocyanine was bound to the C-terminal cysteine as an adjuvant, and […] was immunized therewith. The serum was collected on days 7 and 14 from the immunization. The serum was concentrated by means of an adsorption-dissociation operation using an affinity column to which an oligopeptide corresponding to amino acid residues of 517-530 of Asc-1 was bound in order to obtain an affinity-purified antibody having a protein content of 0.5 mg/ml. As for immunopathological examination, paraffin rat […] diluted with PBS to the optimal concentration was used.
The immune tissue staining was performed based on the protocol of Ventana HX system bench mark (Ventana Japan K.K., Tokyo) including the automated immunostaining device manufactured by Ventana Japan K.K. After deparaffinization, the tissue section was heat-treated at 100° C. for 1 hour. […]

[2] = system: puromycin-induced acute nephrosis model; assay: Puromycin-induced acute nephrosis model: urinary albumin excretion; assay type: in vivo, SD (Sprague-Dawley) rat
Protocol: It is known that a single intravenous dose of 50 mg/kg of puromycin to a 5-week-old SD (Sprague-Dawley) male rat damages the glomerular epithelial cells, causing severe proteinuria peaking from day 6 to day 14 and gradually decreasing thereafter, and again showing tubular proteinuria (see J. R. Diamond, and M. J. Karnovsky: Focal and segmental glomerulosclerosis following a single intravenous dose of puromycin aminonucleoside, Am. J. Pathol; 1986; 122; 481-487) (hereinafter, this model will be referred to as puromycin-induced acute nephrosis model). Using the above puromycin-induced acute nephrosis model as a model of glomerular lesions, the combinational effect of interferon γ and the composition for preventing, ameliorating, or treating glomerular lesions or disease of kidney was examined. To a 5-week-old SD (Sprague-Dawley) male rat, 30 mg/kg/day of said composition (6-2) was subcutaneously administered every day from five days before the administration of puromycin, and at the same time, 0.25 ml (2.3×10^4U) of rat recombinant interferon γ (by PeproTeck, final concentration: 9.09 μg/ml) was intraperitoneally administered on alternate days from five days before the administration of puromycin, followed by a single intravenous dose of 50 mg/kg of puromycin. Even after the administration of puromycin, the same amount of the composition (6-2) and the rat recombinant interferon γ were continuously administered every day and on alternate days respectively. On days 6, 12, and 19 after the administration of puromycin, 24-hour urine collection was performed to measure the amount of rat urinary albumin excretion by ELIZA method. At the same time, the urinary creatinine concentration was also measured by enzyme method. As indexes of glomerular epithelial damage, albumin excretion and the ratio of urinary albumin excretion to urinary creatinine were compared.

[3] = group average ± standard deviation
[4] = individual animal, 30 mg/kg s.c. daily for 21 days, 30 mg/kg
[5] = individual animal, points: ± 0.5, + 1, ++ 2, +++ 3

`O=C1CCC(F)(C(=O)OCc2ccccc2)O1` (stereo not shown) [Compound (6-2)] was tested, and the “Glomerular lesion: number of lesioned glomeruli per 50 glomeruli, expansion of tubular pole associated with swollen Bowman's capsule epithelial cells” value [1, 3] was 3 ± 2 per 50 glomeruli, the “Glomerular lesion: number of lesioned glomeruli per 50 glomeruli, hypertrophy of Bowman's capsule basal membrane” value [1, 3] was 7 ± 2 per 50 glomeruli and the “Number of Asc-1+ cells per 50 glomeruli” value [1, 3] was 8.01 ± 1.96 per 50 glomeruli. For the same compound, the “Tubulointerstitial lesion: atrophy of tubules associated with dilatation of tubules (score)” value [1, 3] was 0.90 ± 0.3, the “Tubulointerstitial lesion: fibrosis of interstitial tissue (score)” value [1, 3] was 1.5 ± 0.6 and the “Tubulointerstitial lesion: thickness of basement membrane (score)” value [1, 3] was 1.5 ± 0.6. For the same compound, the “Tubulointerstitial lesion: total score” value [1, 3] was 3.9 ± 1.0, the “Glomerular lesion: number of lesioned glomeruli per 50 glomeruli, expansion of tubular pole associated with swollen Bowman's capsule epithelial cells” value [1, 4] was 2 per 50 glomeruli (2×) and 5 per 50 glomeruli and 1 per 50 glomeruli and the “Glomerular lesion: number of lesioned glomeruli per 50 glomeruli, hypertrophy of Bowman's capsule basal membrane” value [1, 4] was 6 per 50 glomeruli and 9 per 50 glomeruli and 5 per 50 glomeruli and 8 per 50 glomeruli. For the same compound, the “Number of Asc-1+ cells per 50 glomeruli” value [1, 4] was 9.40 per 50 glomeruli and 9.05 per 50 glomeruli and 5.12 per 50 glomeruli and 8.47 per 50 glomeruli, the “Improvement of glomerular lesion” value ([1]; individual animal, Yes = lesioned glomeruli per 50 glomeruli reduced to less than or equal to half the control average) was “Yes (3×) and No” and the “Improvement of tubulointerstitial lesion” value ([1]; individual animal, Yes = reduced to less than or equal to half the control average) was “No”. The “Tubulointerstitial lesion: atrophy of tubules associated with dilatation of tubules (score)” value [1, 5] was 1 (3×) and 0.5, the “Tubulointerstitial lesion: fibrosis of interstitial tissue (score)” value [1, 5] was 1 (2×) and 2 (2×) and the “Tubulointerstitial lesion: thickness of basement membrane (score)” value [1, 5] was 1 (2×) and 2 (2×). The “Tubulointerstitial lesion: total score” value ([1]; individual animal, sum of the three scores) was 3 (2×) and 4.5 and 5, the “glomerular lesion (in words)” value ([1]; summary of Table 5) was “selectively reduced” and the “uriniferous tubule lesion (in words)” value ([1]; summary of Table 5) was “not reduced”. For the same compound, the “Asc-1 positive cells in the glomeruli (in words)” value ([1]; versus control group) was “increased more significantly than in the control group”, the “Albumin Excretion, Day 6” value ([2]; group average) was 98.3 mg/day and the “Albumin Excretion, Day 12” value ([2]; group average) was 182.6 mg/day. For the same compound, the “Albumin Excretion, Day 19” value ([2]; group average) was 101.0 mg/day, the “Urinary Albumin Excretion/Urinary Creatinine, Day 6” value ([2]; group average) was 16.7 1/Cr and the “Urinary Albumin Excretion/Urinary Creatinine, Day 12” value ([2]; group average) was 29.1 1/Cr. For the same compound, the “Urinary Albumin Excretion/Urinary Creatinine, Day 19” value ([2]; group average) was 15.8 1/Cr, the “Urinary Albumin Excretion/Urinary Creatinine, Day 6” value ([2]; individual animal) was 12.1 1/Cr and 21.2 1/Cr and the “Urinary Albumin Excretion/Urinary Creatinine, Day 12” value ([2]; individual animal) was 22.3 1/Cr and 35.8 1/Cr. For the same compound, the “Urinary Albumin Excretion/Urinary Creatinine, Day 19” value ([2]; individual animal) was 11.0 1/Cr and 20.5 1/Cr, the “Albumin Excretion, Day 6” value ([2]; individual animal, 24-hour urine, day 6 after puromycin, compound 30 mg/kg/day s.c., 30 mg/kg/day) was 80.7 mg/day and 115.9 mg/day and the “Albumin Excretion, Day 12” value ([2]; individual animal, 24-hour urine, day 12 after puromycin, compound 30 mg/kg/day s.c., 30 mg/kg/day) was 136.0 mg/day and 229.1 mg/day. The “Albumin Excretion, Day 19” value ([2]; individual animal, 24-hour urine, day 19 after puromycin, compound 30 mg/kg/day s.c., 30 mg/kg/day) was 73.4 mg/day and 128.6 mg/day.
